In patent US5847092A (Zambon Group S.p.A., priority 1994, dated 1998):
In brackets after ≈: the same amount, converted by molar mass. Like-named read-outs stand apart in the source and are kept apart here.

Columns and labels:
[1] = literature; cited from earlier work
[2] = literature; cited from earlier work; remark: listed apart in the source
[3] = test system: Gram-positive and Gram-negative bacteria; conditions: literature; cited from earlier work
[4] = test system: Enterococcus faecalis ATCC 29212; assay: In vitro antibacterial activity, MIC, broth microdilution; format: cell-based; conditions: Enterococcus faecalis, ATCC29212; E. faecalis ATCC 29212; MHB; 37° C., 18 hours; read-out: minimum inhibiting concentration MIC
Protocol: (§1) a) In vitro antibacterial activity The determination of the minimum inhibiting concentrations (MIC), with respect to Gram-positive and Gram-negative bacteria was carried out through the micromethod of gradual broth dilution in double series [National Committee for Clinical Laboratory Standards, 1990; Methods for dilution antimicrobial susceptibility tests for bacteria that grow aerobically; Approved standards […], Villanova, Pa.], by using Mueller Hinton Broth (MHB) as a culture medium. In the case of […] bacteria, horse serum at 5% (Streptococcus pneumoniae and Streptococcus pyogenes) was added to the medium. Roxithromycin and Clarithromycin [The Merck Index, XI Ed., No. 8253 and 2340, respectively] were used as reference macrolides. MIC, expressed as (μg/ml), were determined after incubation of the microplates at 37° C. for 18 hours, evaluating the lowest antibiotic concentration enabling the inhibition of bacterial development.

[5] = test system: Escherichia coli ATCC 25922; assay: as above; format: cell-based; conditions: Escherichia coli, ATCC25922; E. coli ATCC 25922; MHB; 37° C., 18 hours; read-out: minimum inhibiting concentration MIC
Protocol: as §1

[6] = test system: Klebsiella pneumoniae ZC 2; assay: as above; format: cell-based; conditions: Klebsiella pneumoniae, ZC2; K. pneumoniae ZC 2; MHB; 37° C., 18 hours; read-out: minimum inhibiting concentration MIC
Protocol: as §1

[7] = test system: Staphylococcus aureus PV 14; assay: as above; format: cell-based; conditions: Staphylococcus aureus, PV14; S. aureus PV 14; MHB; 37° C., 18 hours; read-out: minimum inhibiting concentration MIC
Protocol: as §1

[8] = test system: Streptococcus pneumoniae BS 3; assay: as above; format: cell-based; conditions: Streptococcus pneumoniae, BS3; S. pneumoniae BS 3; MHB + 5% horse serum; 37° C., 18 hours; read-out: minimum inhibiting concentration MIC
Protocol: as §1

[9] = test system: Streptococcus pneumoniae BS 4; assay: as above; format: cell-based; conditions: Streptococcus pneumoniae, BS4; S. pneumoniae BS 4; MHB + 5% horse serum; 37° C., 18 hours; read-out: minimum inhibiting concentration MIC
Protocol: as §1

[10] = test system: Streptococcus pyogenes A 26; assay: as above; format: cell-based; conditions: Streptococcus pyogenes, A26; S. pyogenes A 26; MHB + 5% horse serum; 37° C., 18 hours; read-out: minimum inhibiting concentration MIC
Protocol: as §1

[11] = test system: Streptococcus pyogenes C 203; assay: as above; format: cell-based; conditions: Streptococcus pyogenes, C203; S. pyogenes C 203; MHB + 5% horse serum; 37° C., 18 hours; read-out: minimum inhibiting concentration MIC
Protocol: as §1

[12] = test system: Streptococcus pyogenes C 203; assay: In vivo antibacterial activity, experimental pulmonary infection in mouse; conditions: Streptococcus pyogenes, C203, ip, 240 h, intraperitoneal single dose, read-out: average protecting dose PD50
Protocol: The in vivo antibacterial activity of the compounds of formula (I), expressed as average protecting dose PD50 (mg/Kg), was evaluated by means of experimental pulmonary infection induced in mouse by Streptococcus pyogenes (example 23).
b) In vivo antibacterial activity
The therapeutical effectiveness, expressed as average protecting dose (PD50), of the considered compounds of formula (I) was evaluated by experimental pulmonary infection induced in mouse by Streptococcus pyogenesC 203.
Charles River albin mice (strain CD 1), of body weight comprised between 23-35 g, stabulated in groups of 6 for cage and normo-feeded with standard diet and water ad libitum were used. A suspension of S. pyogenes C 203 (corresponding about to 10^8 UFC) in tryptose broth (0.05 ml) was intranasally administered to each mouse anesthesized with a mixture of ethyl ether and chloroform.
The compounds under examination were intraperitoneally administered as a single dose, in 0.2% Tween suspension, 24 hours before or 1 hour after the infection.
Mice mortality observation was prolonged up to 10 days from the infection.
PD50 calculation, expressed as (mg/Kg), was carried out through the analysis of probit.
In vivo antibacterial activity, expressed as average protecting dose PD50 (mg/Kg), 24 hours before and 1 hour after the experimental pulmonary infection induced in mouse by Streptococcus pyogenes C 203, of the compounds 4, 10, 16-19, 21, 23, 26-27, 29-30, 33-35 and 38 and of the reference compounds Roxithromycin and Clarithromycin.

Row | SMILES | stability to the acids (in words) [1] | pharmacokinetic properties / bioavailability (in words) [2] | spectrum of activity in vitro (in words) [3] | MIC [4] [µg/mL] | MIC [5] [µg/mL] | MIC [6] [µg/mL] | MIC [7] [µg/mL] | MIC [8] [µg/mL] | MIC [9] [µg/mL] | MIC [10] [µg/mL] | MIC [11] [µg/mL] | ED50 ([12]; 1 hour after infection) [mg/kg] | ED50 ([12]; 24 hours before infection) [mg/kg]
1 | CC[C@H]1OC(=O)[C@H](C)[C@@H](O[C@H]2C[C@@](C)(OC)[C@@H](O)[C@H](C)O2)[C@H](C)[C@@H](O[C@@H]2O[C@H](C)C[C@H](N(C)C)[C@H]2O)[C@](C)(O)C[C@@H](C)C(=NOCCN(C)C)[C@H](C)[C@@H](O)[C@]1(C)O [Erythromycin A 9-[0-[(2-dimethylamino)ethyl]oxime]] | superior stability to the acids | better pharmacokinetic properties | comparable to that of Erythromycin A |  |  |  |  |  |  |  |  |  | 
2 | CC[C@H]1OC(=O)[C@H](C)[C@@H](O[C@H]2C[C@@](C)(OC)[C@@H](O)[C@H](C)O2)[C@H](C)[C@@H](O[C@@H]2O[C@H](C)C[C@H](N(C)C)[C@H]2O)[C@](C)(O)C[C@@H](C)/C(=N\OCCN(C)CCCCCCN(C)Cc2ccccc2)[C@H](C)[C@@H](O)[C@]1(C)O [Compound 38, Erythromycin A (E)-9-[0-[2-[N-methyl-6-(N'-methyl-N'-phenylmethylamino)hexylamino]ethyl]oxime]] |  |  |  | 8 (≈ 7.93 µM) | 8 (≈ 7.93 µM) | 32 (≈ 31.7 µM) | 0.5 (≈ 0.495 µM) | 0.0078 | 0.0039 | 0.0156 | 0.0078 | 11.8 | 11.8
3 | CCCCOc1ccc(CNCCCCCCNCCO/N=C2\[C@H](C)C[C@@](C)(O)[C@H](O[C@@H]3O[C@H](C)C[C@H](N(C)C)[C@H]3O)[C@@H](C)[C@H](O[C@H]3C[C@@](C)(OC)[C@@H](O)[C@H](C)O3)[C@@H](C)C(=O)O[C@H](CC)[C@@](C)(O)[C@H](O)[C@H]2C)cc1 [Compound 26, Erythromycin A (E)-9-[0-[2-[6-[(4-n.butoxyphenyl)methylamino]hexylamino]ethyl]oxime]] |  |  |  | 1 (≈ 0.949 µM) | 1 (≈ 0.949 µM) | 2 (≈ 1.9 µM) | 0.25 (≈ 0.237 µM) | 0.0156 | 0.0156 | 0.0312 | 0.0078 | 6.11 | 6.11
4 | CC[C@H]1OC(=O)[C@H](C)[C@@H](O[C@H]2C[C@@](C)(OC)[C@@H](O)[C@H](C)O2)[C@H](C)[C@@H](O[C@@H]2O[C@H](C)C[C@H](N(C)C)[C@H]2O)[C@](C)(O)C[C@@H](C)/C(=N\OCCNCCCCCCNCc2cccc([N+](=O)[O-])c2)[C@H](C)[C@@H](O)[C@]1(C)O [Compound 34, Erythromycin A (E)-9-[0-[2-[6-[(3-nitrophenyl)methylamino]hexylamino]ethyl]oxime]] |  |  |  | 1 (≈ 0.974 µM) | 1 (≈ 0.974 µM) | 8 (≈ 7.79 µM) | 0.25 (≈ 0.244 µM) | 0.0019 | 0.0039 | 0.0078 | 0.0039 | 1.88 | 6.8
5 | CC[C@H]1OC(=O)[C@H](C)[C@@H](O[C@H]2C[C@@](C)(OC)[C@@H](O)[C@H](C)O2)[C@H](C)[C@@H](O[C@@H]2O[C@H](C)C[C@H](N(C)C)[C@H]2O)[C@](C)(O)C[C@@H](C)/C(=N\OCCNCCCCCNCc2ccccc2)[C@H](C)[C@@H](O)[C@]1(C)O [Compound 10, Erythromycin A (E)-9-[0-[2-[5-(phenylmethylamino)pentylamino]ethyl]oxime]] |  |  |  | 4 (≈ 4.14 µM) | 4 (≈ 4.14 µM) | 16 (≈ 16.5 µM) | 0.5 (≈ 0.517 µM) | 0.0156 | 0.0156 | 0.0078 | 0.0039 | 2.36 | 5.8
